# Like-named read-outs stand apart in the source and are kept apart here.
# Experiments:
# [1] = system: carbachol- or histamine-induced bronchoconstriction; assay: Bronchodilator Test Method I, anesthetized dog, intravenous activity; type: in vivo; conditions: Canis lupus familiaris, read-out: Bronchodilatation; for inhibition in vivo at 0.0028 mg/kg: 2.8 mcg/kg i.v.; for inhibition in vivo at 0.0056 mg/kg: 5.6 mcg/kg i.v.; for inhibition in vivo at 0.068 mg/kg: 68 mcg/kg i.v.; for inhibition in vivo at 0.137 mg/kg: 137 mcg/kg i.v.; for inhibition in vivo at 0.274 mg/kg: 274 mcg/kg i.v.; for inhibition in vivo at 0.03 mg/kg: 30 mcg/kg i.v.; for inhibition in vivo at 0.24 mg/kg: 240 mcg/kg i.v.; for inhibition in vivo at 0.0012 mg/kg: 1.2 mcg/kg i.v.; for inhibition in vivo at 0.006 mg/kg: 6.0 mcg/kg i.v.; for inhibition in vivo at 0.025 mg/kg: 25 mcg/kg i.v.
# Protocol: Bronchodilator activity was tested in anesthetized dogs (Test Method I) and in vitro on the perfused guinea pig lung (Test Method II), using the following pharmacological test procedures
# (§1) Male and female dogs weighing 9-18 kg. each were anesthetized with pentobarbital sodium (30 mg./kg. i.v.). Each animal, with thorax opened at the midsternum, was maintained under artificial ventilation using a constant volume pump (250 ml./stroke; 10 to 12 strokes per minute) attached to the tracheal cannula. The flow of air was controlled by a glass or plastic valve which closed and opened respectively on inflow and outflow of the air to and from the tracheal cannula. Bronchoconstriction and/or bronchodilatation were measured from changes in the basal airway pressure reflected by a transducer attached to the sidearm of the cannula relayed to a polygraph.
# (§2) Control bronchoconstrictions were induced by intravenous injections of carbachol (choline chloride carbamate) in doses ranging from 4 to 6 micrograms per kilogram or histamine diphosphate in doses ranging from 35 to 45 micrograms per kilogram.
# Solutions of the test compounds were prepared in distilled water or in saline (for infusion). […] These solutions were then tested for bronchodilator activity in three ways, viz. (1) by mixing a graded dose of test compound with the constant does of carbachol or histamine in a syringe and injecting the mixture into the femoral vein of the dog, (2) by producing the bronchoconstriction first and injecting the test compound at the time of maximum constriction, and (3) by injecting the test compound first followed by carbachol or histamine in 1-10 minutes. Injections were repeated at 20-30 minutes. Bronchodilator values were obtained by measuring the areas under the response polygraph tracings (the first 5 munite period) of carbachol or histamine controls and of the experimentals using a planimeter. Decrease in the area thus measured was expressed as a percent bronchodilatation in reference to the area of control carbachol or histamine constriction. The mean bronchodilatations (the reductions in constrictions) were plotted against the doses administered and the mean effective dose (ED50) was estimated in micrograms/kilogram from the does-response curves. Blood pressure recording was taken from the femoral artery using an arterial transducer relayed to a polygraph.
# [2] = system: guinea pig bronchioles constricted by carbachol; assay: Bronchodilator Test Method II, in vitro perfused guinea pig lung
# Protocol: In this method bronchodilator activity in vitro was determined by testing the effect of graded doses of the test compounds on guinea pig bronchioles constricted by carbachol, using the technique reported by Sollman and von Oettingen, Proc. Soc, Exp. Biol. Med., 25,692 (1928) as modified by Tainter, Pedden, and James, J. Pharm. Exp. Ther., 51, 371 (1934) and by Luduena, von Euler, Tullar, and Lands, Arch. intern. Pharmacol., III, 392 (1957).
# [3] = system: carbachol- or histamine-induced bronchoconstriction; assay: Bronchodilator Test Method I, anesthetized dog, intraduodenal activity; type: in vivo; conditions: Canis lupus familiaris, read-out: Bronchodilation; for inhibition in vivo at 0.068 mg/kg: 68 mcg/kg (salt) intraduodenal; for inhibition in vivo at 0.136 mg/kg: 136 mcg/kg (salt) intraduodenal
# Protocol: as §1
# as §2, with “kilogram. In the majority of test animals, the above doses of constrictor agents produced a 100-200 percent increase in the normal airway pressure or amplitude.” for “kilogram.”
# Injections were repeated at 20-30 minutes.
# In intraduodenal studies, in the dog prepared for bronchodilation measurements, the duodenal segment of the small intestine was made easily accessible through a small mid-line incision in the abdomen. The test solution was injected into the duodenum using a fine needle. Commencing 5 minutes after medication, the degree and duration of bronchodilation were tested by injecting a control dose of carbachol or histamine at intervals of 30-60 minutes until the recovery or near-recovery was apparent. In some dogs showing an early recovery, a reference drug was also tested in the same dog 1.5-2 hours after the first medicine.
structure (smiles),measurement,setting,value
"CC(C)(C)NCC(O)c1ccc(OC(=O)C2(C)CC2)c(OC(=O)C2(C)CC2)c1.Cl (stereo not drawn) [Example 13, 3,4-bis(1-methylcyclopropanecarbonyloxy)-alpha-(tert-butylaminomethyl)benzyl alcohol hydrochloride]",inhibition in vivo at 0.0028 mg/kg,"[1]; 2 min, 2 min",52%
same,inhibition in vivo at 0.0056 mg/kg,"[1]; 2 min, 2 min",69%
same,inhibition in vivo at 0.0028 mg/kg,"[1]; 0.5 h, 30 min",48%
same,inhibition in vivo at 0.0056 mg/kg,"[1]; 0.5 h, 30 min",34%
same,inhibition in vivo at 0.0028 mg/kg,"[1]; 1 h, 60 min",0%
same,inhibition in vivo at 0.0056 mg/kg,"[1]; 1 h, 60 min",10%
same,ED50,[2]; carbachol (Doryl) 1:5 million,0.45 µg (base)
same,"Duration, Mean",[2]; dose 0.79 mcg (base),15 ± 1.7 min
"Cc1cccc(C(=O)Oc2ccc(C(O)CNC(C)(C)C)cc2OC(=O)c2cccc(C)c2)c1 (stereo not drawn) [Example 112, 3,4-bis(m-toluyloxy)-alpha-(tert-butylaminomethyl)benzyl alcohol]",inhibition in vivo at 0.068 mg/kg,"[1]; 5 min, 5 min",38%
same,inhibition in vivo at 0.137 mg/kg,"[1]; 5 min, 5 min",80%
same,inhibition in vivo at 0.274 mg/kg,"[1]; 5 min, 5 min",80%
same,inhibition in vivo at 0.068 mg/kg,"[1]; 0.5 h, 30 min",43%
same,inhibition in vivo at 0.137 mg/kg,"[1]; 0.5 h, 30 min",60%
same,inhibition in vivo at 0.274 mg/kg,"[1]; 0.5 h, 30 min",74%
same,inhibition in vivo at 0.068 mg/kg,"[1]; 1 h, 60 min",27%
same,inhibition in vivo at 0.137 mg/kg,"[1]; 1 h, 60 min",50%
same,inhibition in vivo at 0.274 mg/kg,"[1]; 1 h, 60 min",57%
same,inhibition in vivo at 0.137 mg/kg,"[1]; 2 h, 120 min",37%
same,inhibition in vivo at 0.274 mg/kg,"[1]; 2 h, 120 min",54%
same,inhibition in vivo at 0.137 mg/kg,"[1]; 3 h, 180 min",8%
same,inhibition in vivo at 0.274 mg/kg,"[1]; 3 h, 180 min",33%
same,inhibition in vivo at 0.274 mg/kg,"[1]; 4 h, 240 min",38%
same,inhibition in vivo at 0.274 mg/kg,"[1]; 4.5 h, 270 min",25%
same,inhibition in vivo at 0.068 mg/kg,"[3]; 5 min, 5 min",50%
same,inhibition in vivo at 0.136 mg/kg,"[3]; 5 min, 5 min",42%
same,inhibition in vivo at 0.068 mg/kg,"[3]; 10 min, 10 min",0%
same,inhibition in vivo at 0.136 mg/kg,"[3]; 10 min, 10 min",59%
same,inhibition in vivo at 0.136 mg/kg,"[3]; 0.5 h, 30 min",67%
same,inhibition in vivo at 0.136 mg/kg,"[3]; 1 h, 60 min",53%
same,inhibition in vivo at 0.136 mg/kg,"[3]; 2 h, 120 min",0%
same,ED50,[2]; carbachol (Doryl) 1:5 million,4.4 µg (base)
same,"Duration, Mean",[2]; dose 10 mcg (base),104.1 ± 34.9 min
"CCC(NC1CCCC1)C(O)c1ccc(OC(=O)CC(C)C)c(OC(=O)CC(C)C)c1.Cl (stereo not drawn) [Example 138, 3,4-bis(isovaleryloxy)-alpha-[1-(cyclopentylamino)propyl]benzylalcohol hydrochloride]",inhibition in vivo at 0.03 mg/kg,"[1]; 5 min, 5 min",38%
same,inhibition in vivo at 0.24 mg/kg,"[1]; 5 min, 5 min",49%
same,inhibition in vivo at 0.03 mg/kg,"[1]; 0.5 h, 30 min",0%
same,inhibition in vivo at 0.24 mg/kg,"[1]; 0.5 h, 30 min",62%
same,inhibition in vivo at 0.24 mg/kg,"[1]; 1 h, 60 min",42%
same,inhibition in vivo at 0.24 mg/kg,"[1]; 2 h, 120 min",46%
same,ED50,[2]; carbachol (Doryl) 1:5 million,0.46 µg (base)
same,"Duration, Mean",[2]; dose 1.5 mcg (base),25.4 ± 3.5 min
"CC(=O)Oc1ccc(C(O)CNC(C)(C)C)cc1OC(=O)c1ccccc1C (stereo not drawn) [Example 147, 3-(o-toluyloxy)-4-acetoxy-alpha-(tert-butylaminomethyl)benzyl alcohol methanesulfonate]",inhibition in vivo at 0.0012 mg/kg,"[1]; 5 min, 5 min",36%
same,inhibition in vivo at 0.006 mg/kg,"[1]; 5 min, 5 min",77%
same,inhibition in vivo at 0.025 mg/kg,"[1]; 5 min, 5 min",100%
same,inhibition in vivo at 0.0012 mg/kg,"[1]; 0.5 h, 30 min",3%
same,inhibition in vivo at 0.006 mg/kg,"[1]; 0.5 h, 30 min",9%
same,inhibition in vivo at 0.025 mg/kg,"[1]; 0.5 h, 30 min",32%
same,inhibition in vivo at 0.0012 mg/kg,"[1]; 1 h, 60 min",0%
same,inhibition in vivo at 0.006 mg/kg,"[1]; 1 h, 60 min",0%
same,inhibition in vivo at 0.025 mg/kg,"[1]; 1 h, 60 min",12%
same,inhibition in vivo at 0.025 mg/kg,"[1]; 2 h, 120 min",4%
same,ED50,[2]; Doryl conc. 1:10 million,1.9 µg (base)
same,"Duration, Mean","[2]; dose 5 mcg (base), Doryl conc. 1:10 million",15.9 ± 3.3 min

# From USRE30241E, “Esters of 3-(hydroxy or hydroxymethyl)-4-hydroxyphenyl aminomethyl ketones” (Sterling Drug Inc., priority 1970, dated 1980)
